Measurements as given in US20250154163A1, “Pyrimidinone-Containing 17-Beta-Hydroxysteroid Dehydrogenase Type 13 Inhibitors” (ENANTA PHARMACEUTICALS, INC., priority 2023, published 2025).

Tests used:
[1] = molecular target: T1, Recombinant human 17β-HSD13 (Homo sapiens, UniProt Q7Z5P4); assay: 17β-HSD13 rapid-fire mass spectrometry assay (RF/MS assay); type: biochemical; conditions: inhibition of 17β-HSD13, RF/MS assay; HSD17B13 80 nM, LTB4 10 μM, NAD+ 0.5 mM, RT 3 h
T1 construct: host or cells: Sf9 insect cells
T1 sequence (Q7Z5P4 20-300): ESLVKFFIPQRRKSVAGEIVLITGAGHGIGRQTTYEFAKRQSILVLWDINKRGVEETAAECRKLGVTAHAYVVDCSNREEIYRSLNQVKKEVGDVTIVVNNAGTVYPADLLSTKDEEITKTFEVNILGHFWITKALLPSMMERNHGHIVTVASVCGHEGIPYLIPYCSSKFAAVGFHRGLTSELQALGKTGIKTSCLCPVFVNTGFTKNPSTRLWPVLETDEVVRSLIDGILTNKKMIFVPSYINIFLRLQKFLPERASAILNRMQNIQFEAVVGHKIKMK
Text: 17(3-HSD13 rapid-fire mass spectrometry assay (RF/MS assay). Recombinant human 17β-HSD13 was expressed and purified from sf9 cells at Charles River Labs (Saffron Walden, UK). Leukotriene B4 (Catalog #71160-24-2) and 12-oxoleukotriene B4 (Catalog #20140) were purchased from Cayman Chemicals (Ann Arbor, MI). NAD+ (Catalog #N8285), BSA (Catalog #A7030), DMSO (Catalog #D2650), and Tween-20 (Catalog #11332465001) were purchased from Sigma (St. Louis, MO). Formic acid (Catalog #28905) was from ThermoFisher Scientific and 384 deep well PP microplates (Catalog #784261) were from Greiner Bio-One. In a typical IC50 assay performed in a 384w PP microplate, test compounds (0-100 μM) were incubated with HSD17B13 (80 nM), LTB4 (10 μM), and NAD^+ (0.5 mM) in 10 μL assay buffer (20 mM Tris (pH 7.5), BSA (0.005%), and Tween-20 (0.01%)) at RT for 3 h. The assays were quenched by adding 20 μL of 0.15% aqueous formic acid and the plates were frozen at −80° C. RF/MS analysis was performed at PureHoney Technologies (Billerica, MA) on a RapidFire RF300 system (Agilent Technologies, Inc.) coupled to an API 4000 triple quadrupole mass spectrometer (Sciex) equipped with Agilent RapidFire cartridge type A (C4). The mobile phase was 0.09% formic acid and 0.01% trifluoracetic acid in water (Buffer A) and 0.09% formic acid and 0.01% trifluoracetic acid in 80% aqueous acetonitrile (Buffer B). The RapidFire method conditions were the following: 250 ms aspirate, 3000 ms load/desalt, 4000 ms elute, and 500 ms re-equilibrate. RF-MS/MS was performed in negative polarity (−4500 V), the source temperature was 650° C., and gas 1 and gas 2 settings for nitrogen were set to 50. The curtain gas and collision gas were also nitrogen and were set to 20 and 12, respectively. Leukotriene B4 (335.3) and 12-oxoLeukotriene B4 (333.3) SRM transitions were optimized with Discovery Quant software and extracted ion counts for these analytes were determined.
Data Analysis. 17β-HSD13 enzyme activity was measured as percent conversion of extracted ion counts and normalized to high and low controls to determine percent residual activity at various concentrations of test compounds. Data was fitted to normalized activity (variable slope) versus concentration fit in GraphPad Prism 7 to determine IC50. All experiments were run in duplicates.
By using the above method, the inhibition of 17β-HSD13 was evaluated for the compounds of Formula (I). IC50 ranges are as follows: A is <0.1 μM; B is 0.1 μM-1.0 μM; C is 1.0 μM-10 μm; and D is >10 μM.

[2] = molecular target: T2, human HSD17β13 (stable HEK293T cell line overexpressing human HSD17β13) (Homo sapiens, UniProt Q7Z5P4); assay: HSD17β13 inhibitor cell-based screening assay (conversion of estradiol-d2 to estrone-d2 by RF-MS); conditions: conversion of estradiol-d2 to estrone-d2 after 24 hours
T2 construct: expressed in transfected cells
T2 sequence (Q7Z5P4 20-300): T1 sequence (Q7Z5P4 20-300)
In short: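 Cellular IC50 is based on 24-h conversion of estradiol-d2 (5 μM final) to estrone-d2, measured by RF-MS in acetonitrile-precipitated supernatants. Assay uses human HSD17β13-overexpressing HEK293T cells (7.5E3/well, 1% charcoal/dextran FBS MEM), with compounds dosed as a 9-point 1:3 series to 10 μM final. ATPlite luminescence on overexpressing and parent lines measured viability.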

IC50 [1] [nM]	IC50 [2] [nM]	Structure (SMILES)
100 to 1000	1000 to 100000	C=CCc1ccc2c(sc3nc(-c4ccc(OC)cc4C4CC4)n(Cc4cnco4)c(=O)c32)c1O [Example 21, 7-allyl-2-(2-cyclopropyl-4-methoxyphenyl)-8-hydroxy-3-(oxazol-5-ylmethyl)benzo[4,5]thieno[2,3-d]pyrimidin-4(3H)-one]
< 100	< 100	COc1ccc(C2CC2)c(-c2nc3sc4c(O)c(Cl)ccc4c3c(=O)n2Cc2cnco2)c1 [Example 83]
> 10000	1000 to 100000	COc1ccc(-c2nc3sc4cc(O)ccc4c3c(=O)n2Cc2cnco2)c(C2CC2)c1 [Example 36, 2-(2-cyclopropyl-4-methoxyphenyl)-7-hydroxy-3-(oxazol-5-ylmethyl)benzo[4,5]thieno[2,3-d]pyrimidin-4(3H)-one]
< 100	< 100	O=c1c2c(nc(-c3ccc(F)cc3C3CC3)n1Cc1cnc(C3CC3)o1)sc1c(O)c(Cl)ccc12 [Example 50, 7-chloro-2-(2-cyclopropyl-4-fluorophenyl)-3-((2-cyclopropyloxazol-5-yl)methyl)-8-hydroxybenzo[4,5]thieno[2,3-d]pyrimidin-4(3H)-one]
> 10000	1000 to 100000	COc1ccc(-c2nc3sc4c(ccc5[nH]c(=O)[nH]c54)c3c(=O)n2Cc2cnco2)c(C2CC2)c1 [Example 30, 8-(2-cyclopropyl-4-methoxyphenyl)-7-(oxazol-5-ylmethyl)-3,7-dihydro-1H-imidazo[4″,5″:3′,4′]benzo[1′,2′:4,5]thieno[2,3-d]pyrimidine-2,6-dione]
< 100	< 100	COc1ccc(-c2nc3sc4c(O)c(Br)ccc4c3c(=O)n2Cc2cnco2)c(C2CC2)c1 [Example 24, 7-bromo-2-(2-cyclopropyl-4-methoxyphenyl)-8-hydroxy-3-(oxazol-5-ylmethyl)benzo[4,5]thieno[2,3-d]pyrimidin-4(3H)-one]
< 100	< 100	O=c1c2c(nc(-c3cc(F)c(C(F)(F)F)cc3C3CC3)n1Cc1cnco1)sc1c(O)c(Cl)ccc12 [Example 133]
< 100	< 100	COc1ccc(-c2nc3sc4c(O)c(Cl)ccc4c3c(=O)n2Cc2ocnc2F)c(C2CC2)c1 [Example 220]
< 100	< 100	O=c1c2c(nc(-c3cc(F)c(F)cc3C3CC3)n1Cc1cc(C(F)(F)F)on1)sc1c(O)c(Cl)ccc12 [Example 66, 7-chloro-2-(2-cyclopropyl-4,5-difluorophenyl)-8-hydroxy-3-((5-(trifluoromethyl)isoxazol-3-yl)methyl)benzo[4,5]thieno[2,3-d]pyrimidin-4(3H)-one]
< 100	100 to 500	COc1ccc(-c2nc3sc4c(O)cccc4c3c(=O)n2Cc2ocnc2F)c(C2CC2)c1 [Example 25, 2-(2-cyclopropyl-4-methoxyphenyl)-3-((4-fluorooxazol-5-yl)methyl)-8-hydroxybenzo[4,5]thieno[2,3-d]pyrimidin-4(3H)-one]
< 100	< 100	O=c1c2c(nc(-c3cc(F)c(C(F)F)cc3C3CC3)n1Cc1cnc(C(F)(F)F)nc1)sc1c(O)c(Cl)ccc12 [Example 176]
< 100	< 100	Cn1cc(Cn2c(-c3cc(F)c(F)cc3C3CC3)nc3sc4c(O)c(Cl)ccc4c3c2=O)ccc1=O [Example 174]
< 100	< 100	Cc1cc(Cn2c(-c3ccc(F)cc3C3CC3)nc3sc4c(O)c(Cl)ccc4c3c2=O)on1 [Example 43, 7-chloro-2-(2-cyclopropyl-4-fluorophenyl)-8-hydroxy-3-((3-methylisoxazol-5-yl)methyl)benzo[4,5]thieno[2,3-d]pyrimidin-4(3H)-one]
< 100	< 100	O=c1c2c(nc(-c3ccc(F)cc3C3CC3)n1Cc1cc(C(F)(F)F)no1)sc1c(O)c(Cl)ccc12 [Example 40, 7-chloro-2-(2-cyclopropyl-4-fluorophenyl)-8-hydroxy-3-((3-(trifluoromethyl)isoxazol-5-yl)methyl)benzo[4,5]thieno[2,3-d]pyrimidin-4(3H)-one]
< 100	< 100	COc1cc(C2CC2)c(-c2nc3sc4c(O)c(Cl)ccc4c3c(=O)n2Cc2cnco2)cc1Cl [Example 105, 7-chloro-2-(5-chloro-2-cyclopropyl-4-methoxyphenyl)-8-hydroxy-3-(oxazol-5-ylmethyl)benzo[4,5]thieno[2,3-d]pyrimidin-4(3H)-one]
100 to 1000	1000 to 100000	COc1ccc(-c2nc3sc4c(C(=O)O)cccc4c3c(=O)n2Cc2cnco2)c(C2CC2)c1 [Example 2, 2-(2-cyclopropyl-4-methoxyphenyl)-3-(oxazol-5-ylmethyl)-4-oxo-3,4-dihydrobenzo[4,5]thieno[2,3-d]pyrimidine-8-carboxylic acid]
< 100	< 100	O=c1c2c(nc(-c3cc(F)c(F)cc3C3CC3)n1Cc1cc(C(F)(F)F)no1)sc1c(O)c(Cl)ccc12 [Example 85]
> 10000	1000 to 100000	COc1ccc(-c2nc3sc4c(OCCO)cccc4c3c(=O)n2Cc2cnco2)c(C2CC2)c1 [Example 20, 2-(2-cyclopropyl-4-methoxyphenyl)-8-(2-hydroxyethoxy)-3-(oxazol-5-ylmethyl)benzo[4,5]thieno[2,3-d]pyrimidin-4(3H)-one]
> 10000	1000 to 100000	COc1ccc(-c2nc3sc4c(C(F)F)cccc4c3c(=O)n2Cc2cnco2)c(C2CC2)c1 [Example 16, 2-(2-cyclopropyl-4-methoxyphenyl)-8-(difluoromethyl)-3-(oxazol-5-ylmethyl)benzo[4,5]thieno[2,3-d]pyrimidin-4(3H)-one]
< 100	< 100	O=c1c2c(nc(-c3ncc(F)cc3C3CC3)n1Cc1cc(C(F)(F)F)no1)sc1c(O)c(Cl)ccc12 [Example 97]
100 to 1000	100 to 500	COc1cc(C2CC2)c(-c2nc3sc4c(O)c(Cl)cc(Cl)c4c3c(=O)n2Cc2cnco2)cc1Cl [Example 19, 5,7-dichloro-2-(5-chloro-2-cyclopropyl-4-methoxyphenyl)-8-hydroxy-3-(oxazol-5-ylmethyl)benzo[4,5]thieno[2,3-d]pyrimidin-4(3H)-one]
1000 to 10000	1000 to 100000	COc1ccc(-c2nc3sc4c(O[C@@H]5O[C@H](C(=O)O)[C@@H](O)[C@H](O)[C@H]5O)cccc4c3c(=O)n2Cc2cnco2)c(C2CC2)c1 [Example 17, (2S,3S,4S,5R,6S)-6-((2-(2-cyclopropyl-4-methoxyphenyl)-3-(oxazol-5-ylmethyl)-4-oxo-3,4-dihydrobenzo[4,5]thieno[2,3-d]pyrimidin-8-yl)oxy)-3,4,5-trihydroxytetrahydro-2H-pyran-2-carboxylic acid]
< 100	< 100	O=c1c2c(nc(-c3ncc(C(F)(F)F)cc3C3CC3)n1Cc1cc(C(F)(F)F)no1)sc1c(O)c(Cl)ccc12 [Example 96]
1000 to 10000	1000 to 100000	CCCc1ccc2c(sc3nc(-c4ccc(OC)cc4C4CC4)n(Cc4cnco4)c(=O)c32)c1O [Example 22, 2-(2-cyclopropyl-4-methoxyphenyl)-8-hydroxy-3-(oxazol-5-ylmethyl)-7-propylbenzo[4,5]thieno[2,3-d]pyrimidin-4(3H)-one]
